Source: patent US20230000936A1, “A[…] ITCHING […] C[…]” (Demetrix, Inc., priority 2021, published 2023)
“Also recorded” adds a separate entry of the source.

How the values were obtained:
Type in all cases: cell-based
CHRM2 [1] = target: T1, CHRM2 (Homo sapiens, UniProt P08172); assay: IC50 antagonist activity screen, PathHunter β-Arrestin, CHRM2; conditions: for maximum inhibition (antagonism) CHRM2: maximum of IC50 curve
T1 sequence (P08172 1-466): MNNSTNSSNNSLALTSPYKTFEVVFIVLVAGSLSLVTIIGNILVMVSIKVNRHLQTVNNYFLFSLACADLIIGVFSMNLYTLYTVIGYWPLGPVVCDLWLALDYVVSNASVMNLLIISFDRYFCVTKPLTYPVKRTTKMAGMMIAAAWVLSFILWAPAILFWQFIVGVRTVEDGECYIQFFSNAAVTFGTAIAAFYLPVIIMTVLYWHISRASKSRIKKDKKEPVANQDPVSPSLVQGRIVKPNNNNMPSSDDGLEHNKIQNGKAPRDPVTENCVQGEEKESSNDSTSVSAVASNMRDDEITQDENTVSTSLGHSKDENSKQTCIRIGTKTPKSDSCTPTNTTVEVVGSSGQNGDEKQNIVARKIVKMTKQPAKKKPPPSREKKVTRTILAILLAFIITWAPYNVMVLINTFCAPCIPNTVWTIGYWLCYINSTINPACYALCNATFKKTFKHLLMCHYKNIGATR
Method: (§1) In each of the antagonist assays, PathHunter® cell lines were removed from a freezer stock and seeded at a volume of 20 μL into white walled, 384-well microplates and incubated at 37° C. Each cell was pre-incubated with an antagonist followed by an agonist challenge at the EC80 concentration. Cells were then diluted to generate a 5× sample in assay buffer. 5 μL of the 5× sample was then added to cells and incubated at 37° C. for 30 minutes. Finally, 5 μL of 6×EC80 agonist in assay buffer were added to the cells and incubated at 37° C. for 90 minutes or 180 minutes. The assay signal was generated through addition of 12.5 μL or 15 μL (50% V/V) of a detection reagent cocktail followed by a one hour incubation time at room temperature. Microplates were read following signal generation with a PerkinElmer Envision™ (PerkinElmer Inc., Waltham, Mass.) for chemiluminescent signal detection. Reactivity was analyzed using the CBIS data analysis suite (ChemInnovation, CA) where RLU refers to the raw measured values. The percent inhibition was calculated using the formula: % Inhibition=100%*(1−mean RLU of test sample−mean RLU of control)/(mean RLU of EC80 control−mean RLU of vehicle control).
(§2) IC50 curves were measured using the same GPCR assay, PathHunter® β-Arrestin from Eurofins DiscoverX Products (Fremont, Calif.), as the GPCR reactivity screen. As used herein, strong activity against a receptor is considered a maximum activity of about 42% or higher. Higher results for antagonism against CHRM2, EDGE, and MRGPRX2 are considered better. It is further considered better when a cannabinoid inhibits more than one of the receptors.

MRGPRX2 [2] = target: T2, MRGPRX2 (Homo sapiens, UniProt Q96LB1); assay: IC50 antagonist activity screen, PathHunter β-Arrestin, MRGPRX2; conditions: for maximum inhibition (antagonism) MRGPRX2: maximum of IC50 curve; for antagonism of MRGPRX2 (in words): IC50 data
T2 sequence (Q96LB1 1-330): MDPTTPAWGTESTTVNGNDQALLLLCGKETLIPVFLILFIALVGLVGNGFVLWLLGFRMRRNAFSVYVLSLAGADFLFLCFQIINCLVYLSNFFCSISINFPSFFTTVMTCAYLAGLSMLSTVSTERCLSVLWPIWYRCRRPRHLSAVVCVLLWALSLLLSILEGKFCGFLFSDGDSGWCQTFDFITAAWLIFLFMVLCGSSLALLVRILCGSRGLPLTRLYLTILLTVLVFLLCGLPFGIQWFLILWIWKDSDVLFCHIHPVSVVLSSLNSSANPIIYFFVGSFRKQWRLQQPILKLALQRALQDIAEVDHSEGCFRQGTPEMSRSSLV
Method: as §1, §2

EDG3 [3] = target: T3, EDG3 (Homo sapiens, UniProt Q99500); assay: IC50 antagonist activity screen, PathHunter β-Arrestin, EDG3; conditions: for maximum inhibition (antagonism) EDG3: maximum of IC50 curve
T3 sequence (Q99500 whole entry): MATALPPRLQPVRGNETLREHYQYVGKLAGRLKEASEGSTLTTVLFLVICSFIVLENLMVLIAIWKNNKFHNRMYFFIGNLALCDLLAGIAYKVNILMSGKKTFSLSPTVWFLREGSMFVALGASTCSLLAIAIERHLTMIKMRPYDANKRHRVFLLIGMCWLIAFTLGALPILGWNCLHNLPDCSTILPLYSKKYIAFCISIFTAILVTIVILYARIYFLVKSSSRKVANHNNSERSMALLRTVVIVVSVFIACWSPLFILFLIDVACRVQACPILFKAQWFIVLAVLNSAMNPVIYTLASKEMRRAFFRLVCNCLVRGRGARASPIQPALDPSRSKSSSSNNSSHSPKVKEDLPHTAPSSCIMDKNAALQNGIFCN
Method: as §1, §2

CHRM2 [4] = target: T1, CHRM2; assay: GPCR reactivity screen, PathHunter β-Arrestin, agonist assay CHRM2; set-up: concentration or dose not given beside the values; conditions: agonist mode; control acetylcholine
Method: (§3) To evaluate the role specific cannabinoid compounds play in the neurological signaling pathway for itching, a GPCR reactivity assay was performed to determine the reactivity of 19 cannabinoid compounds to each of CHRM2, EDG3, and MRGPRX2. The evaluated cannabinoid compounds were: CBN, THCV, CBDVA, CBG, CBL, CBC, CBDV, CBDA, CBD, CBGA, (+)-CBD, CBG-C4, CBD-C1, CBD-C2, CBGV, CBGA-C4, CBGVA, CBCA, and CBLA. Acetylcholine was used as the control for CHRM2, sphingosine-1-phosphate was used as the control for EDG3; and cortistatin 14 was used as the control for MRGPRX2.
(§4) A total of six assays were run. Specifically, agonist and antagonist assays were run for each of CHRM2, EDG3, and MRGPRX2. In each of the three agonist assays, PathHunter® cell lines were removed from a freezer stock and seeded at a volume of 20 μL into white walled, 384-well microplates and incubated at 37° C. Each cell was incubated with a sample to induce a response and then diluted to generate a 5× sample in assay buffer. 5 μL of the 5× sample was then added to cells and incubated at 37° C. for 90 or 180 minutes. The final assay concentration was 1%. The assay signal was generated through addition of 12.5 μL or 15 μL (50% V/V) of a detection reagent cocktail followed by a one hour incubation time at room temperature. Microplates were read following signal generation with a PerkinElmer Envision™ (PerkinElmer Inc., Waltham, Mass.) for chemiluminescent signal detection. Reactivity was analyzed using the CBIS data analysis suite (ChemInnovation, CA) where RLU refers to the raw measured values. The percent activity was then calculated using the formula: % Activity=100%*(mean RLU of test sample−mean RLU of control)/(mean max control ligand−mean RLU of vehicle control).
(§5) As used herein, strong activity against a receptor is considered a percent activity of about 42% or higher. Higher results for antagonism against CHRM2, EDGE, and MRGPRX2 are considered better. It is further considered better when a cannabinoid inhibits more than one of the receptors.

CHRM2 [5] = target: T1, CHRM2; assay: GPCR reactivity screen, PathHunter β-Arrestin, antagonist assay CHRM2; conditions: for CHRM2 (Antagonist) percent inhibition: antagonist mode, agonist challenge at EC80; for antagonist activity against CHRM2 (in words): GPCR reactivity screen
Method: as §3, §1, §5

EDG3 [6] = target: T3, EDG3; assay: GPCR reactivity screen, PathHunter β-Arrestin, agonist assay EDG3; set-up: concentration or dose not given beside the values; conditions: agonist mode; control sphingosine-1-phosphate
Method: as §3, §4, §5

MRGPRX2 [7] = target: T2, MRGPRX2; assay: GPCR reactivity screen, PathHunter β-Arrestin, antagonist assay MRGPRX2; conditions: for antagonist activity against MRGPRX2 (in words): GPCR reactivity screen; for MRGPRX2 (Antagonist) percent inhibition: antagonist mode, agonist challenge at EC80
Method: as §3, §1, §5

EDG3 [8] = target: T3, EDG3; assay: GPCR reactivity screen, PathHunter β-Arrestin, antagonist assay EDG3; conditions: for EDG3 (Antagonist) percent inhibition: antagonist mode, agonist challenge at EC80
Method: as §3, §1, §5

MRGPRX2 [9] = target: T2, MRGPRX2; assay: GPCR reactivity screen, PathHunter β-Arrestin, agonist assay MRGPRX2; conditions: agonist mode; control cortistatin 14
Method: as §3, §4, §5

SMILES	maximum inhibition (antagonism) CHRM2 (CHRM2 [1])	maximum inhibition (antagonism) MRGPRX2 (MRGPRX2 [2])	maximum inhibition (antagonism) EDG3 (EDG3 [3])	antagonism of CHRM2 (in words) (CHRM2 [1]; IC50 data)	antagonism of MRGPRX2 (in words) (MRGPRX2 [2])	antagonism of EDG3 (in words) (EDG3 [3]; IC50 data)	CHRM2 (Agonist) percent activity (CHRM2 [4])	CHRM2 (Antagonist) percent inhibition (CHRM2 [5])	EDG3 (Agonist) percent activity (EDG3 [6])	antagonist activity against MRGPRX2 (in words) (MRGPRX2 [7])	MRGPRX2 (Antagonist) percent inhibition (MRGPRX2 [7])	EDG3 (Antagonist) percent inhibition (EDG3 [8])	MRGPRX2 (Agonist) percent activity (MRGPRX2 [9])	antagonist activity against CHRM2 (in words) (CHRM2 [5])	antagonist activity against EDG3 (in words) (EDG3 [8]; GPCR reactivity screen)
C=C(C)[C@@H]1CCC(C)=C[C@H]1c1c(O)cc(CCCCCC)cc1O [CBD-C6, cannabidol hexyl]	64%	98%	11%	–	–	–	–	–	–	–	–	–	–	–	–
C=C(C)[C@@H]1CCC(C)=C[C@H]1c1c(O)cc(CCCCCCC)cc1O [CBD-C7, cannabidol heptyl]	90%	98%	20%	–	–	–	–	–	–	–	–	–	–	–	–
C=C(C)[C@@H]1CCC(C)=C[C@H]1c1c(O)cc(CCCCCCCCC)cc1O [CBD-C9, cannabidol nonyl]	90%	96%	0%	remaining as an antagonist	remaining as an antagonist	did not act as an antagonist	–	–	–	–	–	–	–	–	–
C=C(C)[C@@H]1CCC(C)=C[C@H]1c1c(O)cc(CCC)cc1O [CBDV, cannabidivarin]	27%	59%	–	–	–	–	3%	34%	1%	antagonist activity	71%	24%	3%	–	–
CCCCCCc1cc(O)c(C/C=C(\C)CCC=C(C)C)c(O)c1 [CBG-C6, cannabigerol hexyl]	0%	66%	15%	–	–	–	–	–	–	–	–	–	–	–	–
CCCCCCCc1cc(O)c(C/C=C(\C)CCC=C(C)C)c(O)c1 [CBG-C7, cannabigerol heptyl]	10%	99%	32%	–	–	–	–	–	–	–	–	–	–	–	–
CCCCCCCCCc1cc(O)c(C/C=C(\C)CCC=C(C)C)c(O)c1 [CBG-C9, cannabigerol nonyl]	32%	100%	55%	–	–	–	–	–	–	–	–	–	–	–	–
CCCc1cc(O)c(C/C=C(\C)CCC=C(C)C)c(O)c1 [CBGV, cannabigerivarin]	–	76%	–	–	–	–	0%	28%	2%	antagonist activity	95%	29%	1%	–	–
CCCCCc1cc(O)c2c(c1)OC1(C)CCC3C1C2C3(C)C (stereo not drawn) [CBL, cannabicyclol]	47%	81%	–	–	–	–	13%	84%	−1%	antagonist activity	82%	9%	11%	antagonist activity	–
CCCCCc1cc2c(c(O)c1C(=O)O)C1C3C(CCC3(C)O2)C1(C)C (stereo not drawn) [CBLA, cannabicyclolic acid]	–	44%	–	–	–	–	−4%	−19%	3%	–	36%	19%	2%	–	–
CCCCCc1cc(O)c2c(c1)OC(C)(C)c1ccc(C)cc1-2 [CBN, cannabinol]	–	78%	–	–	–	–	0%	7%	5%	antagonist activity	73%	12%	22%	–	–
CCCc1cc(O)c2c(c1)OC(C)(C)[C@@H]1CCC(C)=C[C@@H]21 [THCV, tetrahydrocannabivarin]	0%	21%	–	–	inhibition was not observed	–	18%	42%	1%	do not exhibit an antagonistic effect; also recorded: antagonist activity; also recorded: demonstrated antagonism	55%	20%	18%	do not exhibit an antagonistic effect	do not exhibit an antagonistic effect
